Literature values, collected in US20250352523A1, “TRIPLE PHARMACEUTICAL COMPOSITION FOR PROTEINACEOUS INFECTION” (priority 2024, published 2025).

Key:
AD = conditions: in vivo
patients with AD = conditions: human, in vivo
AD patients = conditions: twelve months' treatment, versus placebo

| SMILES | beneficial effects on AD (AD) | further results |
| --- | --- | --- |
| CC(=O)Nc1ccc(O)cc1 [Acetaminophen] | not found to have beneficial effects | – |
| COc1ccc2cc([C@H](C)C(=O)O)ccc2c1 [Naproxen] | – | cognitive function in patients with AD (patients with AD): did not improve cognitive function |
| CC(=O)Oc1ccccc1C(=O)O [aspirin] | not found to have beneficial effects | – |
| CO[C@H]1/C=C/O[C@@]2(C)Oc3c(C)c(O)c4c(O)c(c(/C=N/N5CCN(C)CC5)c(O)c4c3C2=O)NC(=O)/C(C)=C\C=C\[C@H](C)[C@H](O)[C@@H](C)[C@@H](O)[C@@H](C)[C@H](OC(C)=O)[C@@H]1C [rifampin] | – | effects on cognition or function in AD (AD patients): no beneficial effects |
